These are literature values, as cited in patent US20040087644A1, “Pharmaceutical composition in capsules that comprises a non-steroidal antiinflamatory and an optiate analgesic for handling pain” (Leopoldo Espinosa Abdala, priority 2002, published 2004).

For series [1] the following is noted: in vivo.
A further series relates to pain. The settings on record: clinical studies, compared with opiates.

In the case of `O=C(c1ccccc1)c1ccc2n1CCC2C(=O)O` (centres unmarked) [Ketorolac], the “dose excreted through the urine without changes” value in series [1] is recorded as “About 90%”. Besides, in the series on pain, the analgesic efficiency entry is given as “comparable with opiates”.
